Assay type in all cases: cell-based
One test concerns A549. Kind of test: Test A: Cytostatic Cell Culture Assay (GI50), A549. As to conditions: Homo sapiens, 120 h; A549 cells, 5 days, SRB; read-out: G150 Lung A549. The source says:
(§1) Test A: Cytostatic Cell Culture Assay (GI50)
(§2) This assay is based on quantification of cell counts by a calorimetric detection of the cell associated proteins. The assay relies on the ability of sulforhodamine B (SRB) to bind to protein components of cells that have been fixed to tissue-culture plates by trichloroacetic acid (TCA). SRB is a bright-pink aminoxanthene dye with two sulfonic groups that bind to basic amino-acid residues under mild acidic conditions, and dissociate under basic conditions. As the binding of SRB is stoichiometric, the amount of dye extracted from stained cells is directly proportional to the cell mass.
(§3) Cell lines: All cell lines are obtained from ATCC (Manassas, Va.). Cultivation media containing Glutanax, and trypsin are purchased from Invitrogen (Carlsbad, Calif.). Doxorubicin, Clofarabine, TCA and SRB are from Sigma-Aldrich (St. Louis, Mo.). Gemcitabine is obtained from Moravek Biochemicals (Brea, Calif.)
(§4) • 1. Trypsinize the sub-confluent cells, count them, and adjust the cell concentrations according to the cell counts listed in Table 1. • 2. Distribute the cells into the 96-well plates in 150 μL of media. Incubate the plates overnight in humidified CO2 incubator at 37° C. • 3. Fix one plate of each cell line with TCA. Discard the cultivation media from the plates by flicking them gently and add 100 μL cold 10% (vol/vol) TCA to each well. Incubate the plates at 4 degree refrigerator for 1 hour. Discard TCA from the plates by flicking them gently. Rinse plates four times in a washing basin containing tap water. Store the plates at room temperature. These plates represent cell counts on day zero. • 4. Prepare a set of medium solutions containing various concentrations of tested compounds by making 5-fold serial dilutions in 96-well plate. Add 50 μL of the diluted compounds per well. Include controls with untreated cells and cells treated with doxorubicin, clofarabine and gemcitabine. • 5. Incubate the plates for 5 days at 37° C. • 6. Fix the plates with TCA. Discard the cultivation media from the plates by flicking them gently and add 100 μL cold 10% (vol/vol) TCA to each well. Incubate the plates at 4 degree refrigerator for 1 hour. Discard TCA from the plates by flicking them gently. Rinse plates four times in a washing basin containing tap water. • 7. Remove excess water by tapping the plates face down, gently on a paper towel. Allow the plates to air-dry at room temperature. • 8. Add 100 μL of 0.057% SRB solution in 1% (vol/vol) acetic acid to each well of the plates fixed with TCA on day zero and five. Leave at room temperature for 30 minutes. • 9. Flick the plates gently to discard SRB. Rinse the plates four times with 1% (vol/vol) Acetic Acid. • 10. Store the plates at 370 incubator to facilitate faster drying. • 11. Once the plates are completely dry, add 200 μL of 10 mM Tris base solution (pH 10.5) to each well. Leave at room temperature for 30 minutes for SRB to solubilize. • 12. Measure the OD at 500 nm in a microplate reader. • 13. Calculate the percentage of cell-growth inhibition using the next formula: % of control cell growth=100×(ODsample−mean ODday0)/(ODneg control−mean ODday0)
(§5) For GI50 determination, plot a dose-response curves between the compound concentration and percent of growth inhibition. GI50 values can be derived by fitting dose-response curves using sigmoidal dose response equation.

Another test has as its system NCIH23. The test is described as follows: Test A: Cytostatic Cell Culture Assay (GI50), NCIH23. As to conditions: Homo sapiens, NCI-H23, 120 h; NCIH23 cells, 5 days, SRB; read-out: G150 Lung NCIH23.
Description: as §1, §2, §3, §4, §5

The subject of another test is Du145. Kind of test: Test A: Cytostatic Cell Culture Assay (GI50), Du145. As to conditions: Homo sapiens, DU-145, 120 h; Du145 cells, 5 days, SRB; read-out: G150 Prostate Du145.
Description: as §1, §2, §3, §4, §5

The subject of a further test is PC3. Kind of test: Test A: Cytostatic Cell Culture Assay (GI50), PC3. As to conditions: Homo sapiens, PC-3, 120 h; PC3 cells, 5 days, SRB; read-out: G150 Prostate PC3.
Description: as §1, §2, §3, §4, §5

In another test the test system is HCT116. The test is described as follows: Test A: Cytostatic Cell Culture Assay (GI50), HCT116. The note with it: Homo sapiens, HCT-116, 120 h; HCT116 cells, 5 days, SRB; read-out: G150 Colon HCT116.
Description: as §1, §2, §3, §4, §5

A further test deals with HCT15. The test is described as follows: Test A: Cytostatic Cell Culture Assay (GI50), HCT15. As to conditions: Homo sapiens, HCT-15, 120 h; HCT15 cells, 5 days, SRB; read-out: G150 Colon HCT15.
Description: as §1, §2, §3, §4, §5

The next test concerns Hs578. The test is described as follows: Test A: Cytostatic Cell Culture Assay (GI50), Hs578. As to conditions: 120 h; Hs578 cells, 5 days, SRB; read-out: G150 Breast Hs578.
Description: as §1, §2, §3, §4, §5

Test [1] relates to Human T-lymphoid cell line CCRF-CEM. The test is described as follows: Cell cycle distribution in human T-lymphoid cells (propidium iodide, flow cytometry). The note with it: 72 hours; for Relative change in cell cycle phase compared to untreated control, G1 / Relative change in cell cycle phase compared to untreated control, G2/M / Relative change in cell cycle phase compared to untreated control, S: concentration corresponding to CC50, untreated control = 1. The procedure: Effects of the Compounds on Cell Cycle Distribution in Human T-Lymphoid Cells
Human T-lymphoid cell line CCRF-CEM is treated with tested compounds for 72 hours at the concentration corresponding to the CC50 value of each compound. At the end of incubation, cells are harvested by centrifugation, washed, and fixed in ethanol. Fixed cells are stained with propidium iodide in a buffer containing RNaseA and the cell cycle distribution analysis is performed by flow cytometry using BD FACSAria instrument. Data are processed using BD FACSDiva software v4.1 and presented as a percentage of analyzed cell population in Phase G1, S, and G2/M. Cell cycle distribution is determined in parallel for untreated and treated cells and relative change for each cell cycle phase is calculated.
The data represent changes in the frequency of each cell cycle phase in treated cells relative to untreated control (the relative fraction of each analyzed cell cycle phase in untreated control has the value of 1).
Primary data are shown in Table 3, with values representing the percentage distribution of each cell cycle phase in the total cell population.
For orientation: In flow cytometry, cells or beads pass a laser one at a time.

Regarding `OC[C@H]1O[C@@H](n2ccc3c(-c4ccco4)ncnc32)[C@H](O)[C@@H]1O` [Example 5, 4-(Furan-2-yl)-7-(β-D-ribofuranosyl)-7H-pyrrolo[2,3-d]pyrimidine], the IC50 in the test with A549 stood at 88 nM; in the test with NCIH23, 4.2 µM; in the test on Du145, 7 nM; in the test on PC3, 91 nM; with HCT116 it was 78 nM; in the test with HCT15, 20 nM. Besides, the IC50 in the test on Hs578 came out at 49 nM. Besides, the G1 % is reported as 26.14% in test [1] (0.3 μM, replicate 1) and 23.61% in test [1] (0.3 μM, replicate 2). Moreover, the G2/M % in test [1] (0.3 μM, replicate 1) stood at 11.89%; in test [1] (0.3 μM, replicate 2), 16.41%. The S % in test [1] (0.3 μM, replicate 1) was determined as 61.98%; in test [1] (0.3 μM, replicate 2) it was 59.99%. Further, the “Relative change in cell cycle phase compared to untreated control, G1” value (“Relative change in cell cycle phase … G1” for short) in test [1] came out at 0.57. In addition, the “Relative change in cell cycle phase compared to untreated control, G2/M” value (“Relative change in cell cycle phase … G2/M” for short) in test [1] was found to be 1.19. Also, the “Relative change in cell cycle phase compared to untreated control, S” value (shortened to “Relative change … to untreated control, S”) in test [1] is reported as 1.38.
In the case of `OC[C@H]1O[C@@H](n2ccc3c(-c4cccs4)ncnc32)[C@H](O)[C@@H]1O` [Example 6, 7-(β-D-Ribofuranosyl)-4-(thiophen-2-yl)-7H-pyrrolo[2,3-d]pyrimidine], the IC50 amounted to 45 nM with A549; 4.1 µM in the test with NCIH23; 9 nM in the test on Du145; 67 nM in the test with PC3; 49 nM in the test with HCT116; 78 nM with HCT15. The IC50 in the test with Hs578 was 101 nM. The G1 % was found to be 30.82% in test [1] (0.3 μM, replicate 1) and 14.66% in test [1] (0.3 μM, replicate 2). In addition, the G2/M % in test [1] (0.3 μM, replicate 1) was found to be 14.53%; in test [1] (0.3 μM, replicate 2) it was 22.05%. For the same compound, the S % in test [1] (0.3 μM, replicate 1) came to 54.65%; in test [1] (0.3 μM, replicate 2), 63.29%. The “Relative change in cell cycle phase … G1” value in test [1] was found to be 0.52. The “Relative change in cell cycle phase … G2/M” value in test [1] amounted to 1.54. Also, the “Relative change … to untreated control, S” value in test [1] is recorded as 1.34.
Take `OC[C@H]1O[C@@H](n2cc(F)c3c(-c4ccco4)ncnc32)[C@H](O)[C@@H]1O` [Example 20, 5-Fluoro-4-(furan-2-yl)-7-(β-D-ribofuranosyl)-7H-pyrrolo[2,3-d]pyrimidine]: the IC50 amounted to 109 nM in the test on A549; 4.3 µM in the test with NCIH23; 5 nM in the test with Du145; 75 nM in the test with PC3; 39 nM in the test with HCT116; 57 nM in the test on HCT15. The IC50 with Hs578 worked out at 175 nM. Further, the G1 % is on record as 22.32% in test [1] (1.5 μM, replicate 1) and 28.81% in test [1] (1.5 μM, replicate 2). Also, the G2/M % is 30.19% in test [1] (1.5 μM, replicate 1) and 25.24% in test [1] (1.5 μM, replicate 2). The S % stood at 47.49% in test [1] (1.5 μM, replicate 1) and 45.95% in test [1] (1.5 μM, replicate 2). The “Relative change in cell cycle phase … G1” value in test [1] was found to be 0.61. Besides, the “Relative change in cell cycle phase … G2/M” value in test [1] came out at 2.00. Also, the “Relative change … to untreated control, S” value in test [1] came to 1.06.
On to `OC[C@H]1O[C@@H](n2cc(F)c3c(-c4cccs4)ncnc32)[C@H](O)[C@@H]1O` [Example 21], for which the IC50 in the test on A549 was determined as 61 nM; with NCIH23 it was 4.7 µM; in the test with Du145 it was 9 nM; with PC3, 83 nM; in the test with HCT116 it was 9 nM; with HCT15 it was 18 nM. In addition, in the test with Hs578, the IC50 stood at 132 nM. In addition, the G1 % in test [1] (0.3 μM, replicate 1) was 30.83%; in test [1] (0.3 μM, replicate 2), 32.73%. Further, the G2/M % turned out to be 22.80% in test [1] (0.3 μM, replicate 1) and 23.53% in test [1] (0.3 μM, replicate 2). The S % is reported as 46.37% in test [1] (0.3 μM, replicate 1) and 43.74% in test [1] (0.3 μM, replicate 2). For the same compound, the “Relative change in cell cycle phase … G1” value in test [1] stood at 0.74. For the same compound, in test [1], the “Relative change in cell cycle phase … G2/M” value came to 1.38. Moreover, the “Relative change … to untreated control, S” value in test [1] is reported as 1.12.
Regarding `OC[C@H]1O[C@@H](n2cc(Cl)c3c(-c4cccs4)ncnc32)[C@H](O)[C@@H]1O` [Example 30, 5-Chloro-7-(β-D-ribofuranosyl)-4-(thiophen-2-yl)-7H-pyrrolo[2,3-d]pyrimidine], the IC50 with A549 was 375 nM; with NCIH23 it was 2.02 µM; in the test on Du145, 13 nM; in the test with PC3, 35 nM; in the test on HCT116 it was 275 nM; with HCT15, 81 nM. Also, the IC50 in the test with Hs578 came to 1640 nM.
Take `OC[C@H]1O[C@@H](n2cc(Cl)c3c(-c4ccoc4)ncnc32)[C@H](O)[C@@H]1O` [Example 31, 5-Chloro-4-(furan-3-yl)-7-(β-D-ribofuranosyl)-7H-pyrrolo[2,3-d]pyrimidine]: the IC50 is 1050 nM in the test with A549; 5.26 µM in the test with NCIH23; 54 nM with Du145; 1200 nM in the test with PC3; 1960 nM with HCT116; 632 nM in the test with HCT15. For the same compound, the IC50 in the test with Hs578 was 1580 nM.
Regarding `OC[C@H]1O[C@@H](n2cc(Cl)c3c(-c4ccsc4)ncnc32)[C@H](O)[C@@H]1O` [Example 32, 5-Chloro-7-(β-D-ribofuranosyl)-4-(thiophen-3-yl)-7H-pyrrolo[2,3-d]pyrimidine], the IC50 in the test on A549 amounted to 378 nM; in the test on NCIH23, 4.54 µM; in the test on Du145 it was 18 nM; in the test on PC3 it was 118 nM; with HCT116 it was 101 nM; in the test on HCT15, 148 nM. Further, the IC50 in the test on Hs578 stood at 109 nM.

These data come from patent US8093226B2, “Cytostatic 7-deazapurine nucleosides” (Institute of Organic Chemistry and Biochemistry of the …, priority 2008, dated 2012).
